# Data as given in patent EP4670733A1, “METHODS FOR PREPARING VIRAL PROTEINS AND USES THEREOF” (priority 2024, dated 2025).
# Columns and labels:
# NA enzyme = test: NA enzymatic activity, MUNANA assay; format: biochemical, influenza virus; conditions: drug substance (Sample E6)
# [1] = Endotoxin content, limulus amoebocyte lysate (LAL) assay; conditions: drug substance (Sample E6)
# [2] = system: B/Phuket/3073/2013 virus strain; parameters: species or system influenza virus
# [3] = system: B/Phuket/3073/2013 virus strain; test: HA content by SRID; parameters: species or system influenza virus
# [4] = system: B/Phuket/3073/2013 virus strain; test: Splitting efficiency by ultracentrifugation in sucrose gradient; parameters: species or system influenza virus
Substance,NA enzymatic activity: NA activity (NA enzyme) [µmol/mL/h],Endotoxin content [1] [EU/mL],Residual infectious virus [2],HA content in µg/mL (SRID) [3] [µg/mL],Splitting efficiency (ultracentrifugation in sucrose gradient) [4],NA enzymatic activity: Specific activity (NA enzyme) [µmol/mg/h]
Triton X-100,155,< 0.5,No Residual infectious virus,269.97,Conform* (Max total protein by OD280 at 40%sucrose for whole virus and lower than 30%sucrose for split virus.),–
C11-15-secondary alcohol ethoxylates,228,< 0.5,No Residual infectious virus,241.24,–,1915
